Assay results reported in patent USRE40086E1, “Method for treating bacterial infection with novel 7-substituted-9-substituted amino 6-demethyl-6-deoxytetracyclines” (Wyeth Holdings Corporation, priority 1991, dated 2008).

Experiments:
Streptococcus pneumoniae = assay: MIC vs recent clinical and agricultural isolates (Table V, KK); type: cell-based; conditions: [10] tested
[1] = tested on: S. aureus UBMS 88-4 (Sensitive); assay: MIC, agar dilution; type: cell-based; conditions: S. aureus UBMS 88-4; Table IA; unit assumed
Morganella morganii = assay: MIC vs recent clinical and agricultural isolates (Table V, KK); type: cell-based; conditions: [16] tested
Clostridium perfringens = type: cell-based; conditions: [16] tested
Moraxella catarrhalis = assay: MIC vs recent clinical and agricultural isolates (Table V, KK); type: cell-based; conditions: [18] tested
Bacteroides fragilis = assay: as above; type: cell-based; conditions: [11] tested
[2] = tested on: S. aureus UBMS 88-5 (tetM); assay: MIC, agar dilution; type: cell-based; conditions: S. aureus UBMS 88-5 TetM; Table IA; unit assumed
Kiebsiella pneumoniae = assay: MIC vs recent clinical and agricultural isolates (Table V, KK); type: cell-based; conditions: [10] tested
Enterococcus faecalis = assay: as above; type: cell-based; conditions: [10] tested
Klebsiella oxytoca = assay: as above; type: cell-based; conditions: [10] tested
Streptococcus agalactiae = assay: as above; type: cell-based; conditions: [10] tested
[3] = tested on: Staphylococcus Coagulase-negative, methicillin-susceptible; assay: as above; type: cell-based; conditions: [16] tested
[4] = tested on: Escherichia coli (Clinical); assay: as above; type: cell-based; conditions: [30] tested
Pseudomonas aeruginosa = assay: as above; type: cell-based; conditions: [10] tested
Serratia mercescens = assay: as above; type: cell-based; conditions: [10] tested
Enterobacter cloacae = assay: as above; type: cell-based; conditions: [10] tested
[5] = tested on: S. aureus UBMS 88-7 (tetK); assay: MIC, agar dilution; type: cell-based; conditions: S. aureus UBMS 88-7 TetK; Table IA; unit assumed
Citrobacter freundii = assay: MIC vs recent clinical and agricultural isolates (Table V, KK); type: cell-based; conditions: [10] tested
Listeria monocytogenes = assay: as above; type: cell-based; conditions: [8] tested
[6] = tested on: E. coli UBMS 89-2 (Sensitive); assay: MIC, agar dilution; type: cell-based; conditions: E. coli UBMS 89-2 Tet Sens.; Table IA; unit assumed
E. coli ATCC 25922 = assay: MIC, agar dilution; type: cell-based; conditions: E. coli ATCC 25922; Table IA; unit assumed
E. coli UBMS 89-1 (tetM) = assay: MIC, agar dilution; type: cell-based; conditions: E. coli UBMS 89-1 TetM; Table IA; unit assumed
S. aureus SMITH (sens) = assay: In vivo antibacterial evaluation, acute lethal infection in mice; conditions: Oral
Excerpt: In Vivo Antibacterial Evaluation (Table VII)

[7] = tested on: S. aureus UBMS 90-1 (tetM); assay: MIC, agar dilution; type: cell-based; conditions: S. aureus UBMS 90-1 TetM; Table IA; unit assumed
[8] = tested on: Bordetella bronchiseptica (Agricultural); assay: MIC vs recent clinical and agricultural isolates (Table V, KK); type: cell-based; conditions: [10] tested
E. faecalis 12201 = assay: MIC, agar dilution; type: cell-based; conditions: Enterococcus 12201; Table IA; unit assumed
[9] = tested on: S. aureus ATCC 29213 (Sensitive); assay: MIC, agar dilution; type: cell-based; conditions: S. aureus ATCC 29213; Table IA
Enterococcus faecium = assay: MIC vs recent clinical and agricultural isolates (Table V, KK); type: cell-based; conditions: [10] tested
Proteus vulgaris = assay: as above; type: cell-based; conditions: [18] tested
[10] = tested on: S. haemolyticus AVAH 88-3; assay: MIC, agar dilution; type: cell-based; conditions: S. hemolyticus AVHAH 88-3; Table IA; unit assumed
Bacteroides spp. = assay: MIC vs recent clinical and agricultural isolates (Table V, KK); type: cell-based; conditions: [9] tested
[11] = tested on: Escherichia coli (Agricultural); assay: as above; type: cell-based; conditions: [15] tested
Haemophilus influenzae = assay: as above; type: cell-based; conditions: [15] tested
Enterobacter aerogenes = assay: as above; type: cell-based; conditions: [10] tested
Clostridium difficile = assay: as above; type: cell-based; conditions: [12] tested
[12] = tested on: Pasturella multocida (Agricultural & Clinical); assay: as above; type: cell-based; conditions: [17] tested
[13] = tested on: Bacertoides fragilis group; assay: as above; type: cell-based; conditions: [10] tested
[14] = tested on: S. aureus Smith (Sensitive); assay: MIC, agar dilution; type: cell-based; conditions: S. aureus SMITH (MP); Table IA; unit assumed
Neisseria gonorrhoeae = assay: MIC vs recent clinical and agricultural isolates (Table V, KK); type: cell-based; conditions: [14] tested
[15] = tested on: Staphylococcus aureus, methicillin-susceptible; assay: as above; type: cell-based; conditions: [15] tested
[16] = tested on: Staphylococcus aureus, methicillin-resistant; assay: as above; type: cell-based; conditions: [15] tested
Xanthomonas maltophilia = assay: as above; type: cell-based; conditions: [10] tested
Anaerobic Gram (+) Cocci = assay: as above; type: cell-based; conditions: [15] tested
Streptococcus pyogenes = assay: as above; type: cell-based; conditions: [10] tested
Proteus mirabilis = assay: as above; type: cell-based; conditions: [26] tested
Shigella spp. = type: cell-based; conditions: [14] tested
Citrobacter diversus = assay: MIC vs recent clinical and agricultural isolates (Table V, KK); type: cell-based; conditions: [10] tested

Structure (SMILES): CN(C)CC(=O)Nc1cc(N(C)C)c2c(c1O)C(=O)C1=C(O)[C@]3(O)C(=O)C(C(N)=O)=C(O)[C@@H](N(C)C)C3CC1C2.Cl.Cl (stereo partly drawn) [KK, [4S-(4alpha,12aalpha)]-4,7-Bis(dimethylamino)-9-[[(dimethylamino)acetyl]amino]-1,4,4a,5,5a,6,11,12a-octahydro-3,10,12,12a-tetrahydroxy-1,11-dioxo-2-naphthacenecarboxamide dihydrochloride]
- MIC (range over isolates) (Streptococcus pneumoniae): 0.03 to 0.25 µg/mL
- Antibacterial activity (MIC) [1]: 0.12 µg/mL
- MIC (range over isolates) (Morganella morganii): 0.5 to 4 µg/mL
- MIC (range over isolates) (Clostridium perfringens): 0.03 to 1 µg/mL
- MIC (range over isolates) (Moraxella catarrhalis): 0.06 to 0.12 µg/mL
- MIC (range over isolates) (Bacteroides fragilis): 0.06 to 0.2 µg/mL
- Antibacterial activity (MIC) [2]: 0.25 µg/mL
- MIC (range over isolates) (Kiebsiella pneumoniae): 0.25 to 8 µg/mL
- MIC (range over isolates) (Enterococcus faecalis): 0.015 to 0.12 µg/mL
- MIC (range over isolates) (Klebsiella oxytoca): 0.5 to 1 µg/mL
- MIC (range over isolates) (Streptococcus agalactiae): 0.06 to 0.25 µg/mL
- MIC (range over isolates) [3]: 0.12 to 8 µg/mL
- MIC (range over isolates) [4]: 0.12 to 4 µg/mL
- MIC (range over isolates) (Pseudomonas aeruginosa): 1 to 16 µg/mL
- MIC (range over isolates) (Serratia mercescens): 2 to 8 µg/mL
- MIC (range over isolates) (Enterobacter cloacae): 0.5 to 1 µg/mL
- Antibacterial activity (MIC) [5]: 0.25 µg/mL
- MIC (range over isolates) (Citrobacter freundii): 0.25 to 8 µg/mL
- MIC (range over isolates) (Listeria monocytogenes): 0.06 to 0.12 µg/mL
- Antibacterial activity (MIC) [6]: 0.25 µg/mL
- Antibacterial activity (MIC) (E. coli ATCC 25922): 0.25 µg/mL
- Antibacterial activity (MIC) (E. coli UBMS 89-1 (tetM)): 0.12 µg/mL
- ED50 (S. aureus SMITH (sens)): 8 to 16 mg/kg
- Antibacterial activity (MIC) [7]: 0.25 µg/mL
- MIC (range over isolates) [8]: 0.12 µg/mL
- Antibacterial activity (MIC) (E. faecalis 12201): 0.12 µg/mL
- Antibacterial activity (MIC) [9]: ≦0.015
- MIC (range over isolates) (Enterococcus faecium): 0.03 to 0.12 µg/mL
- MIC (range over isolates) (Proteus vulgaris): 0.5 to 4 µg/mL
- Antibacterial activity (MIC) [10]: 0.12 µg/mL
- MIC (range over isolates) (Bacteroides spp.): 0.03 to 1 µg/mL
- MIC (range over isolates) [11]: 0.12 to 4 µg/mL
- MIC (range over isolates) (Haemophilus influenzae): 0.5 to 2 µg/mL
- MIC (range over isolates) (Enterobacter aerogenes): 0.5 to 1 µg/mL
- MIC (range over isolates) (Clostridium difficile): 0.03 µg/mL
- MIC (range over isolates) [12]: 0.03 to 0.25 µg/mL
- MIC (range over isolates) [13]: 0.06 to 2 µg/mL
- Antibacterial activity (MIC) [14]: 0.06 µg/mL
- MIC (range over isolates) (Neisseria gonorrhoeae): 0.25 to 1 µg/mL
- MIC (range over isolates) [15]: 0.12 to 0.25 µg/mL
- MIC (range over isolates) [16]: 0.12 to 2 µg/mL
- MIC (range over isolates) (Xanthomonas maltophilia): 0.5 to 2 µg/mL
- MIC (range over isolates) (Anaerobic Gram (+) Cocci): 0.015 to 0.06 µg/mL
- MIC (range over isolates) (Streptococcus pyogenes): 0.06 to 0.12 µg/mL
- MIC (range over isolates) (Proteus mirabilis): 1 to 32 µg/mL
- MIC (range over isolates) (Shigella spp.): 0.06 to 0.5 µg/mL
- MIC (range over isolates) (Citrobacter diversus): 0.25 to 1 µg/mL
